Reference: US8104331B2, “Method and device to extract components contained in a fluid” (Noab Biodiscoveries Inc., priority 2006, dated 2012)

Assays:
[1] = Conventional plasma sampling and analysis for pharmacokinetics after i.v. bolus diazepam; conditions: rat; for AUMC: 2-compartment analysis; for AUMC0-inf / AUMC0-tlast: metabolite, i.v. bolus 0.5 mg/kg diazepam, noncompartmental
Description: (§1) Animal Experiments: Male Sprague-Dawley rats (Charles River Labs, St. Constant, PQ) with an average weight of 300 g are acclimatized to their new environment for a minimum of 5 days prior to surgery. […] The catheters are plugged with removable metal plugs at the free end and then exteriorized by threading them under the skin and through a small incision at the nape of the neck. Animals are allowed to recover overnight prior to dosing. […] In vivo mouse experiments are conducted with conscious male Swiss Webster mice implanted with a carotid artery catheter. All procedures followed have been reviewed by the NoAb BioDiscoveries Inc. animal care committee and were performed in accordance with the principles of the Canadian Council on Animal Care (CCAC).
(§2) For each time point (5, 15, 30, 45, 60, 75, 120, 180, 240 and 360 min), the probes are in place for about two (2) minutes before the stated analysis time and blood draws are performed immediately after removing the probes. After the two (2) minute extraction time, the probes are removed, rinsed with water, and stored at −20° C. until the next day, when analysis is performed. […] For SPME calibration, rat whole blood is spiked with appropriate amounts of benzodiazepines and incubated with 10% CO2 atmosphere. The analytical range is 3-750 ng/mL.
Conventional Plasma Sampling and Analysis: In addition to SPME sampling, 0.2 mL of blood is withdrawn from the interface at each time point. Plasma is isolated by centrifugation at 2500 rpm for 10 minutes and frozen at −20° C. in 2 mL cryovials (Wheaton Science Products, Millville, N.J.) until analysis. For analysis, 0.05 mL of plasma is mixed with 0.25 mL acetonitrile containing 25 ng/mL lorazepam as internal standard in conical centrifuge vials. After vortex mixing (2400 rpm, 5 minutes) and centrifugation (14000 rpm, 7 minutes), 0.2 mL of the supernatant is transferred to a 96-well plate and evaporated to dryness under flowing nitrogen. The residue is dissolved in 0.1 mL acetonitrile/water (75:25) on a shaking bed (150 rpm). Twenty μL is injected for analysis using the same chromatographic conditions as for the analysis of SPME probes. The linear range is 0.1-1000 ng/mL.
(§3) Areas under the plasma concentration versus time curves (AUCs) represent the areas under the curve from the time of dosing and extrapolated to infinity. […] The total body clearance (CL) is estimated as: Dose/AUC. Mean residence times (MRT) are calculated as: AUMC/AUC, where AUMC denotes the area under the first moment curve. The steady-state volume of distribution (Vss) is calculated as: CL*MRT.
(§4) AUCs are calculated by the linear/log-linear trapezoidal rule. AUCs represent the areas under the curve from the time of dosing: (1) to the time (tlast) of the last measurable concentration, Clast (AUC0-tlast) and, (2) extrapolated to infinity (AUC0-inf). AUC0-inf is estimated by the addition of AUC0-tlast and Clast/k, where k (or λz) represents the terminal elimination rate constant. K is estimated by weighted (1/Y^2) regression analysis of at least 4 time points from the terminal (log-linear) portion of the concentration versus time curve.
For validation of the in vivo sampling method taught by the applicant's teachings, blood is sampled after each probe extraction, and plasma is isolated by centrifugation.

[2] = In vivo SPME sampling of whole blood for pharmacokinetics after i.v. bolus diazepam; conditions: rat; for AUMC: SPME/blood, 2-compartment analysis; for AUMC0-inf / AUMC0-tlast: metabolite, SPME (blood, equilibrium calibration), i.v. bolus 0.5 mg/kg diazepam, noncompartmental
Description: as §1
A device to extract components is attached to the carotid artery catheter prior to dosing each rat or mouse. To insert the probes, the tip of the SPME probe needle is used to pierce the septum of the device. The length of the fiber or wire of the probe is chosen so that the coated wire is completely exposed to the blood flow when the plunger is fully depressed. Before use, the SPME probe is sterilized in an autoclave at 121° C. and 15 psi for about 30 minutes. For validation purposes, blood draws are taken from the same interface after each sampling with SPME. All the probes are for single use.
as §2, §3, §4
In vivo experiments are conducted with conscious male Sprague-Dawley rats implanted with jugular vein and carotid artery catheters. The catheters are plugged and exteriorized at the nape of the neck. Prior to dosing, the opening of the device is connected to the carotid artery catheter. The channel of the device is either connected to the jugular vein catheter or is connected to a syringe pump. Connecting the device to the jugular vein catheter allowed for automatic return of the arterial blood, using the pumping action of the heart of the animal. Connecting the device to a syringe allows for precise control of the blood flow rate through the device. The device and the associated tubing are kept warm at 38° C.
At each sampling time point, a sterile SPME device is placed through the septum into the interface so that only the coated portion of the fiber is exposed to the flowing blood. Blood flow through the device is either allowed to run freely via recirculation to the jugular vein or is induced by the push/pull action of a syringe attached to the channel.

Structure (SMILES) | AUMC ([1]; equilibrium calibration study, diazepam 0.5 mg/kg i.v. bolus) | AUMC ([1]; kinetic calibration study, diazepam 1 mg/kg i.v. bolus) | AUMC ([2]; equilibrium calibration, diazepam 0.5 mg/kg i.v. bolus) | AUMC ([2]; kinetic calibration, diazepam 1 mg/kg i.v. bolus) | AUMC0-inf [1] | AUMC0-tlast [1] | AUMC0-inf [2] | AUMC0-tlast [2]
CN1C(=O)CN=C(c2ccccc2)c2cc(Cl)ccc21 [diazepam] | 319 h^2*ng/mL | 1000 h^2*ng/mL | 527 h^2*ng/mL | 741 h^2*ng/mL | – | – | – | –
O=C1Nc2ccc(Cl)cc2C(c2ccccc2)=NC1O (stereo not drawn) [Oxazepam, oxazepam] | – | – | – | – | 293 h^2*ng/mL | 176 h^2*ng/mL | 834 h^2*ng/mL | 278 h^2*ng/mL
O=C1CN=C(c2ccccc2)c2cc(Cl)ccc2N1 [Nordiazepam, nordiazepam] | – | – | – | – | 16.5 h^2*ng/mL | 6.38 h^2*ng/mL | 50.0 h^2*ng/mL | 7.86 h^2*ng/mL
